Experimental data: US20230135093A1, “TRIAZOLYL DERIVATIVES AS GABA A ALPHA5 PAM” (Hoffmann-La Roche Inc., priority 2020, published 2023)

Columns and labels:
[1] = target: T1, h-GABA-A α5β3γ2 (Homo sapiens, UniProt P18507+P31644); assay: Two-electrode voltage clamp electrophysiology in Xenopus oocytes expressing GABAA receptors (modulation of GABA EC20 current); assay type: cell-based; details: Table 1; for Efficacy (GABA) %: % modulation of GABA EC20 = 100*(Fold increase-1); for Fold increase h-GABA-A α5β3γ2 oocyte: Xenopus oocytes, GABA EC20, test compound at approximatively 30 fold its Ki
T1 construct: expressed in transfected cells; host or cells: Xenopus laevis oocytes, micro-injected with subunit RNA
Protocol: Xenopus laevis oocytes at maturation stages V-VI were used for the expression of cloned mRNA encoding GABAA receptor subunits. Oocytes ready for RNA micro-injection were bought from Ecocyte, Castrop-Rauxel, Germany and stored in modified Barth's medium (composition in mM: NaCl 88, KCl 1, NaHCO3 2.4, HEPES 10, MgSO4 0.82, CaNO3 0.33, CaCl2 0.33, pH=7.5) at 20° C. until the experiment.
Oocytes were plated in 96-well plates to be used in an automated instrument (Robo-ocyte, MultiChannelSystems, Reutlingen, Germany) for microinjection and electrophysiological recordings. Approximately 50 nl of an aqueous solution containing the RNA transcripts for the subunits of the desired GABAA receptor was injected into each oocyte. RNA concentrations ranged between 0.3 and 16 ng/μl/subunit and were adjusted in pilot experiments to obtain GABA responses of a suitable size and a maximal effect of the reference modulator, Beta-CCM (3-CCM), a betacarboline negative allosteric modulator (NAM) at the GABAA receptor benzodiazepine (BZD) binding site or Midazolam, a benzodiazepine positive allosteric modulator (PAM) at the GABAA receptor benzodiazepine (BZD) binding site. The concentration of the γ2 subunit encoding RNA usually was 5- to 10-fold higher than the RNAs encoding the other subunits. Oocytes were kept in modified Barth's medium (composition in mM: NaCl 88, KCl 1, NaHCO3 4, HEPES 10, MgSO4 0.82, CaNO3 0.33, CaCl2 0.33, pH=7.5) at 20° C. until the experiment.
Electrophysiological experiments were performed on days 3 to 5 after the micro-injection of mRNA. During the experiment the oocytes were constantly superfused by a solution containing (in mM) NaCl 90, KCl 1, HEPES 5, MgCl2 1, CaCl2 1 (pH 7.4). Oocytes were impaled by two glass microelectrodes (resistance: 0.4 MQ) which were filled with a solution containing KCl 1M+K-acetate 1.5 M and voltage-clamped to −80 mV. The recordings were performed at room temperature using the Roboocyte two-electrode voltage clamp system (Multichannelsystem). After an initial equilibration period of 1.5 min GABA was added for 1.5 min at a concentration evoking approximately 20% of a maximal current response (EC20). After another rest interval of 2.5 min GABA was again added evoking a response of similar amplitude and shape. 0.5 min after the onset of this second GABA application the test compound, at a concentration corresponding to approximatively 30 fold its Ki, was added while GABA was still present. Current traces were recorded at a digitization rate of 10 Hz during and shortly before and after the GABA application.
Each compound and concentration was tested on at least 3 oocytes. Different oocytes were used for different compound concentrations. β-CCM, a negative allosteric modulator, or Midazolam, a positive allosteric modulators, were tested on a few (3-6) oocytes on each 96-well plate for a positive control at a maximally effective. β-CCM inhibited the GABA-evoked current by approximatively 50% (Fold increase 0.5), while Midazolam potentiated the GABA-induced current by approximatively 150% (Fold increase 2.5).
For the analysis, the digitized current traces of the first and second GABA response were superimposed and, if necessary, rescaled to equal maximal amplitudes. The ratio between the two responses during the time interval of test compound application was calculated point by point. The extremum of the resulting “ratio trace” was taken as the efficacy (“Fold increase”) of the compound expressed as “% modulation of GABA EC20” (100*(Fold increase-1)).

[2] = target: T1, h-GABA-A α5β3γ2; assay: [3H]flumazenil competition binding assay on membranes of HEK293 cells expressing GABAA receptors; details: Table 1; displacement of [3H]-Flumazenil (0.5 nM), HEK293 cells expressing human receptors, means of two determinations
Protocol: The affinity of compounds at GABAA receptor subtypes was measured by competition for [3H]flumazenil (85 Ci/mmol; Roche) binding to HEK293 cells expressing rat (stably transfected) or human (transiently transfected) receptors of composition α1β3γ2, α2β3γ2, α3β3γ2 and α5β3γ2.
Cell pellets were suspended in Krebs-tris buffer (4.8 mM KCl, 1.2 mM CaCl2, 1.2 mM MgCl2, 120 mM NaCl, 15 mM Tris; pH 7.5; binding assay buffer), homogenized by polytron for ca. 20 sec on ice and centrifuged for 60 min at 4° C. (50000 g; Sorvall, rotor: SM24=20000 rpm). The cell pellets were resuspended in Krebs-tris buffer and homogenized by polytron for ca. 15 sec on ice. Protein was measured (Bradford method, Bio-Rad) and aliquots of 1 mL were prepared and stored at −80° C.
Radioligand binding assays were carried out in a volume of […] (96-well plates) which contained […] of cell membranes, [^3H]-Flumazenil at a concentration of 1 nM for α1, α2, α3 subunits and 0.5 nM for α5 subunits and the test compound in the range of […]. Nonspecific binding was defined by 10^−5 M diazepam and typically represented less than 5% of the total binding. Assays were incubated to equilibrium for 1 hour at 4° C. and harvested onto GF/C uni-filters (Packard) by filtration using a Packard harvester and washing with ice-cold wash buffer (50 mM Tris; pH 7.5). After drying, filter-retained radioactivity was detected by liquid scintillation counting. Ki values were calculated using Excel-Fit (Microsoft) and are the means of two determinations.
In a preferred embodiment the compounds of the invention are binding selective for the α5 subunit relative to the α1, α2 and α3 subunit. Representative test results, obtained by the above described assay measuring binding affinity to HEK293 cells expressing human (h) receptors, are shown in the Table below.

Efficacy (GABA) % [1]	Fold increase h-GABA-A α5β3γ2 oocyte [1]	Ki [2]	Structure (SMILES)
115%	2.15	18.4 nM	Cn1nnc(-c2ccc(Cl)cc2F)c1Cn1ncc(N2CC(OCC3CC3)C2)cc1=O [Example 28, 2-[[5-(4-chloro-2-fluoro-phenyl)-3-methyl-triazol-4-yl]methyl]-5-[3-(cyclopropyl-methoxy)azetidin-1-yl]pyridazin-3-one]
49%	1.49	15.2 nM	Cn1nnc(-c2ccc(Cl)cc2F)c1Cn1ncc(N2CC3(CCCO3)C2)cc1=O [Example 29, 2-[[5-(4-chloro-2-fluoro-phenyl)-3-methyl-triazol-4-yl]methyl]-5-(5-oxa-2-azaspiro[3.4]octan-2-yl)pyridazin-3-one]
110%	2.1	3.1 nM	C[C@@H]1CN(c2cnn(Cc3c(-c4ccc(Cl)cc4)nnn3C)c(=O)c2)C[C@H](C)O1 [Example 30, 2-[[5-(4-chlorophenyl)-3-methyl-triazol-4-yl]methyl]-5-[(2R,6S)-2,6-dimethylmorpholin-4-yl]pyridazin-3-one]
35%	1.35	17.2 nM	CN(C)c1cnn(Cc2c(-c3ccc(Cl)cc3)nnn2C)c(=O)c1 [Example 31, 2-[[5-(4-chlorophenyl)-3-methyl-triazol-4-yl]methyl]-5-(dimethylamino)pyridazin-3-one]
98%	1.98	46.4 nM	CO[C@@H]1COC2(C1)CN(c1cnn(Cc3c(-c4ccc(Cl)cc4F)nnn3C)c(=O)c1)C2 [Example 32, (S)-2-((4-(4-chloro-2-fluorophenyl)-1-methyl-1H-1,2,3-triazol-5-yl)methyl)-5-(7-methoxy-5-oxa-2-azaspiro[3.4]octan-2-yl)pyridazin-3(2H)-one]
61%	1.61	16.7 nM	CO[C@H]1COC2(C1)CN(c1cnn(Cc3c(-c4ccc(Cl)cc4F)nnn3C)c(=O)c1)C2 [Example 33, (R)-2-((4-(4-chloro-2-fluorophenyl)-1-methyl-1H-1,2,3-triazol-5-yl)methyl)-5-(7-methoxy-5-oxa-2-azaspiro[3.4]octan-2-yl)pyridazin-3(2H)-one]
85%	1.85	44.2 nM	Cc1nnn(-c2ccc(Cl)cc2F)c1Cn1ncc(N2CC(OCC(F)(F)F)C2)cc1=O [Example 34, 2-[[3-(4-chloro-2-fluoro-phenyl)-5-methyl-triazol-4-yl]methyl]-5-[3-(2,2,2-trifluoro-ethoxy)azetidin-1-yl]pyridazin-3-one]
130%	2.3	10.4 nM	Cc1nnn(-c2ccc(Cl)cc2F)c1Cn1ncc(N2CCO[C@@H](C)C2)cc1=O [Example 35, 2-[[3-(4-chloro-2-fluoro-phenyl)-5-methyl-triazol-4-yl]methyl]-5-[(2S)-2-methylmorpholin-4-yl]pyridazin-3-one]
106%	2.06	12.4 nM	Cc1nnn(-c2ccc(Cl)cc2F)c1Cn1ncc(N2CCO[C@H](C)C2)cc1=O [Example 36, 2-[[3-(4-chloro-2-fluoro-phenyl)-5-methyl-triazol-4-yl]methyl]-5-[(2R)-2-methylmorpholin-4-yl]pyridazin-3-one]
78%	1.78	5.6 nM	Cc1nnn(-c2ccc(Cl)cc2F)c1Cn1ncc(N2CCC(n3ccnc3C)CC2)cc1=O [Example 38, 2-[[3-(4-chloro-2-fluoro-phenyl)-5-methyl-triazol-4-yl]methyl]-5-[4-(2-methylimidazol-1-yl)-1-piperidyl]pyridazin-3-one]
108%	2.08	11.5 nM	COc1ncccc1N1CCN(c2cnn(Cc3c(C)nnn3-c3ccc(Cl)cc3F)c(=O)c2)CC1 [Example 39, 2-[[3-(4-chloro-2-fluoro-phenyl)-5-methyl-triazol-4-yl]methyl]-5-[4-(2-methoxy-3-pyridyl)piperazin-1-yl]pyridazin-3-one]
103%	2.03	20.2 nM	CC(C)N1CCN(c2cnn(Cc3c(-c4ccc(Cl)cc4)nnn3C)c(=O)c2)C[C@@H]1C [Example 40, 2-[[5-(4-chlorophenyl)-3-methyl-triazol-4-yl]methyl]-5-[(3S)-4-isopropyl-3-methyl-piperazin-1-yl]pyridazin-3-one]
47%	1.47	37.7 nM	CCOC1CN(c2cnn(Cc3c(-c4ccc(Cl)cc4)nnn3C)c(=O)c2)C1 [Example 41, 2-[[5-(4-chlorophenyl)-3-methyl-triazol-4-yl]methyl]-5-(3-ethoxyazetidin-1-yl)pyridazin-3-one]
71%	1.71	18.3 nM	CC(C)O[C@@H]1CCN(c2cnn(Cc3c(-c4ccc(Cl)cc4F)nnn3C)c(=O)c2)C1 [Example 42, 2-((5-(4-chloro-2-fluoro-phenyl)-3-methyl-triazol-4-yl)methyl)-5-((3R)-3-isopropoxy-pyrrolidin-1-yl)pyridazin-3-one]
97%	1.97	7.9 nM	Cn1nnc(-c2ccc(Cl)cc2F)c1Cn1ncc(N2CC(Oc3ccccn3)C2)cc1=O [Example 43, 2-((5-(4-chloro-2-fluoro-phenyl)-3-methyl-triazol-4-yl)methyl)-5-(3-(2-pyridyl-oxy)azetidin-1-yl)pyridazin-3-one]
82%	1.82	4.4 nM	CC(C)N1CCN(c2cnn(Cc3c(-c4ccc(Cl)cc4F)nnn3C)c(=O)c2)C[C@@H]1C [Example 44, 2-((5-(4-chloro-2-fluoro-phenyl)-3-methyl-triazol-4-yl)methyl)-5-((3S)-4-isopropyl-3-methyl-piperazin-1-yl)pyridazin-3-one]
